Each block holds one compound with its values, some of them ahead of it. Where a SMILES comes first, the peptide text is derived from it. The star is where a group is joined. 5FAM = O=C1OC2(c3ccc(O)cc3Oc3cc(O)ccc32)c2ccc(C(=O)*)cc21
Assays:
RyR = test: Pilot FLT-FRET screen of NIH Clinical Collection 1 with D-FKBP and A-CaM near their Kd; type: binding; settings: preliminary screen
Excerpt: The optimal concentration of A-CaM may vary from sarcoplasmic reticulum to cell samples, but using a concentration of A-CaM that is at or near its Kd will allow detection of enhanced CaM binding by FRET assays. Compounds that modulate CaM binding are expected to also affect RyR channel function, which can optionally be determined in secondary functional assays. […] A pilot screen of NIH Clinical Collection 1 used donor labeled FKBP and acceptor labeled CaM near their Kd.
Using the method illustrated in FIGS. 3 and 4, a preliminary screen of NIH Clinical Collection 1 (NCC1, 446 compounds) was conducted. The concentrations of A-CaM and D-FKBP were near their Kd. […] In FIG. 36, we represented the effect of compounds on FRET as E(compound)/E(control) (E/E0). Values outside the 3SD threshold (dotted line) are considered hits. Increased FRET (E/E0>1) indicates increased FKBP and/or CaM binding; decreased FRET (E/E0<1) indicates decreased FKBP and/or CaM binding.

RyR2 [1] = target: T1, RyR2 (Rattus norvegicus, UniProt B0LPN4); test: HF647-DPc10 wash-in kinetics by FRET from F-FKBP (donor quench) in permeabilized myocytes; type: binding; parameters: These fluorescent proteins were added to saponin-permeabilized myocytes with or without pre-equilibration with saturating DPc10 concentration; endogenous in cells; host or cells: saponin-permeabilized rat ventricular myocytes; settings: myocytes
Protocol: The FRET pair we used in this consisted of ALEXA FLUOR™ 488 (donor) covalently attached to FKBP12.6 (F-FKBP) and HiLyte Fluor™647 (acceptor) covalently attached to DPc10 (F-DPc10).^8 To detect F-DPc10 specifically bound to RyR2, we measured donor fluorescence intensities through a 500-530 nm bandpass filter before and after equilibration with acceptor (donor quenching method). The FRET efficiency (E) was calculated according to: E=1-FDA/FD, Where FD and FDA are the fluorescence intensities of the donor-only and donor-plus-acceptor samples, respectively (Oda et al., Circ Res. 2013;112:487-497). Statistics
Next we tested whether RyR2 oxidation would increase HF647-DPc10 access. Here, we used FRET between F-FKBP as a donor and HF647-DPc10 as an acceptor, to detect DPc10 that specifically binds at RyR2 (Oda et al., Circ Res. 2013; 112:487-497).
Target sequence in this assay (B0LPN4 whole entry): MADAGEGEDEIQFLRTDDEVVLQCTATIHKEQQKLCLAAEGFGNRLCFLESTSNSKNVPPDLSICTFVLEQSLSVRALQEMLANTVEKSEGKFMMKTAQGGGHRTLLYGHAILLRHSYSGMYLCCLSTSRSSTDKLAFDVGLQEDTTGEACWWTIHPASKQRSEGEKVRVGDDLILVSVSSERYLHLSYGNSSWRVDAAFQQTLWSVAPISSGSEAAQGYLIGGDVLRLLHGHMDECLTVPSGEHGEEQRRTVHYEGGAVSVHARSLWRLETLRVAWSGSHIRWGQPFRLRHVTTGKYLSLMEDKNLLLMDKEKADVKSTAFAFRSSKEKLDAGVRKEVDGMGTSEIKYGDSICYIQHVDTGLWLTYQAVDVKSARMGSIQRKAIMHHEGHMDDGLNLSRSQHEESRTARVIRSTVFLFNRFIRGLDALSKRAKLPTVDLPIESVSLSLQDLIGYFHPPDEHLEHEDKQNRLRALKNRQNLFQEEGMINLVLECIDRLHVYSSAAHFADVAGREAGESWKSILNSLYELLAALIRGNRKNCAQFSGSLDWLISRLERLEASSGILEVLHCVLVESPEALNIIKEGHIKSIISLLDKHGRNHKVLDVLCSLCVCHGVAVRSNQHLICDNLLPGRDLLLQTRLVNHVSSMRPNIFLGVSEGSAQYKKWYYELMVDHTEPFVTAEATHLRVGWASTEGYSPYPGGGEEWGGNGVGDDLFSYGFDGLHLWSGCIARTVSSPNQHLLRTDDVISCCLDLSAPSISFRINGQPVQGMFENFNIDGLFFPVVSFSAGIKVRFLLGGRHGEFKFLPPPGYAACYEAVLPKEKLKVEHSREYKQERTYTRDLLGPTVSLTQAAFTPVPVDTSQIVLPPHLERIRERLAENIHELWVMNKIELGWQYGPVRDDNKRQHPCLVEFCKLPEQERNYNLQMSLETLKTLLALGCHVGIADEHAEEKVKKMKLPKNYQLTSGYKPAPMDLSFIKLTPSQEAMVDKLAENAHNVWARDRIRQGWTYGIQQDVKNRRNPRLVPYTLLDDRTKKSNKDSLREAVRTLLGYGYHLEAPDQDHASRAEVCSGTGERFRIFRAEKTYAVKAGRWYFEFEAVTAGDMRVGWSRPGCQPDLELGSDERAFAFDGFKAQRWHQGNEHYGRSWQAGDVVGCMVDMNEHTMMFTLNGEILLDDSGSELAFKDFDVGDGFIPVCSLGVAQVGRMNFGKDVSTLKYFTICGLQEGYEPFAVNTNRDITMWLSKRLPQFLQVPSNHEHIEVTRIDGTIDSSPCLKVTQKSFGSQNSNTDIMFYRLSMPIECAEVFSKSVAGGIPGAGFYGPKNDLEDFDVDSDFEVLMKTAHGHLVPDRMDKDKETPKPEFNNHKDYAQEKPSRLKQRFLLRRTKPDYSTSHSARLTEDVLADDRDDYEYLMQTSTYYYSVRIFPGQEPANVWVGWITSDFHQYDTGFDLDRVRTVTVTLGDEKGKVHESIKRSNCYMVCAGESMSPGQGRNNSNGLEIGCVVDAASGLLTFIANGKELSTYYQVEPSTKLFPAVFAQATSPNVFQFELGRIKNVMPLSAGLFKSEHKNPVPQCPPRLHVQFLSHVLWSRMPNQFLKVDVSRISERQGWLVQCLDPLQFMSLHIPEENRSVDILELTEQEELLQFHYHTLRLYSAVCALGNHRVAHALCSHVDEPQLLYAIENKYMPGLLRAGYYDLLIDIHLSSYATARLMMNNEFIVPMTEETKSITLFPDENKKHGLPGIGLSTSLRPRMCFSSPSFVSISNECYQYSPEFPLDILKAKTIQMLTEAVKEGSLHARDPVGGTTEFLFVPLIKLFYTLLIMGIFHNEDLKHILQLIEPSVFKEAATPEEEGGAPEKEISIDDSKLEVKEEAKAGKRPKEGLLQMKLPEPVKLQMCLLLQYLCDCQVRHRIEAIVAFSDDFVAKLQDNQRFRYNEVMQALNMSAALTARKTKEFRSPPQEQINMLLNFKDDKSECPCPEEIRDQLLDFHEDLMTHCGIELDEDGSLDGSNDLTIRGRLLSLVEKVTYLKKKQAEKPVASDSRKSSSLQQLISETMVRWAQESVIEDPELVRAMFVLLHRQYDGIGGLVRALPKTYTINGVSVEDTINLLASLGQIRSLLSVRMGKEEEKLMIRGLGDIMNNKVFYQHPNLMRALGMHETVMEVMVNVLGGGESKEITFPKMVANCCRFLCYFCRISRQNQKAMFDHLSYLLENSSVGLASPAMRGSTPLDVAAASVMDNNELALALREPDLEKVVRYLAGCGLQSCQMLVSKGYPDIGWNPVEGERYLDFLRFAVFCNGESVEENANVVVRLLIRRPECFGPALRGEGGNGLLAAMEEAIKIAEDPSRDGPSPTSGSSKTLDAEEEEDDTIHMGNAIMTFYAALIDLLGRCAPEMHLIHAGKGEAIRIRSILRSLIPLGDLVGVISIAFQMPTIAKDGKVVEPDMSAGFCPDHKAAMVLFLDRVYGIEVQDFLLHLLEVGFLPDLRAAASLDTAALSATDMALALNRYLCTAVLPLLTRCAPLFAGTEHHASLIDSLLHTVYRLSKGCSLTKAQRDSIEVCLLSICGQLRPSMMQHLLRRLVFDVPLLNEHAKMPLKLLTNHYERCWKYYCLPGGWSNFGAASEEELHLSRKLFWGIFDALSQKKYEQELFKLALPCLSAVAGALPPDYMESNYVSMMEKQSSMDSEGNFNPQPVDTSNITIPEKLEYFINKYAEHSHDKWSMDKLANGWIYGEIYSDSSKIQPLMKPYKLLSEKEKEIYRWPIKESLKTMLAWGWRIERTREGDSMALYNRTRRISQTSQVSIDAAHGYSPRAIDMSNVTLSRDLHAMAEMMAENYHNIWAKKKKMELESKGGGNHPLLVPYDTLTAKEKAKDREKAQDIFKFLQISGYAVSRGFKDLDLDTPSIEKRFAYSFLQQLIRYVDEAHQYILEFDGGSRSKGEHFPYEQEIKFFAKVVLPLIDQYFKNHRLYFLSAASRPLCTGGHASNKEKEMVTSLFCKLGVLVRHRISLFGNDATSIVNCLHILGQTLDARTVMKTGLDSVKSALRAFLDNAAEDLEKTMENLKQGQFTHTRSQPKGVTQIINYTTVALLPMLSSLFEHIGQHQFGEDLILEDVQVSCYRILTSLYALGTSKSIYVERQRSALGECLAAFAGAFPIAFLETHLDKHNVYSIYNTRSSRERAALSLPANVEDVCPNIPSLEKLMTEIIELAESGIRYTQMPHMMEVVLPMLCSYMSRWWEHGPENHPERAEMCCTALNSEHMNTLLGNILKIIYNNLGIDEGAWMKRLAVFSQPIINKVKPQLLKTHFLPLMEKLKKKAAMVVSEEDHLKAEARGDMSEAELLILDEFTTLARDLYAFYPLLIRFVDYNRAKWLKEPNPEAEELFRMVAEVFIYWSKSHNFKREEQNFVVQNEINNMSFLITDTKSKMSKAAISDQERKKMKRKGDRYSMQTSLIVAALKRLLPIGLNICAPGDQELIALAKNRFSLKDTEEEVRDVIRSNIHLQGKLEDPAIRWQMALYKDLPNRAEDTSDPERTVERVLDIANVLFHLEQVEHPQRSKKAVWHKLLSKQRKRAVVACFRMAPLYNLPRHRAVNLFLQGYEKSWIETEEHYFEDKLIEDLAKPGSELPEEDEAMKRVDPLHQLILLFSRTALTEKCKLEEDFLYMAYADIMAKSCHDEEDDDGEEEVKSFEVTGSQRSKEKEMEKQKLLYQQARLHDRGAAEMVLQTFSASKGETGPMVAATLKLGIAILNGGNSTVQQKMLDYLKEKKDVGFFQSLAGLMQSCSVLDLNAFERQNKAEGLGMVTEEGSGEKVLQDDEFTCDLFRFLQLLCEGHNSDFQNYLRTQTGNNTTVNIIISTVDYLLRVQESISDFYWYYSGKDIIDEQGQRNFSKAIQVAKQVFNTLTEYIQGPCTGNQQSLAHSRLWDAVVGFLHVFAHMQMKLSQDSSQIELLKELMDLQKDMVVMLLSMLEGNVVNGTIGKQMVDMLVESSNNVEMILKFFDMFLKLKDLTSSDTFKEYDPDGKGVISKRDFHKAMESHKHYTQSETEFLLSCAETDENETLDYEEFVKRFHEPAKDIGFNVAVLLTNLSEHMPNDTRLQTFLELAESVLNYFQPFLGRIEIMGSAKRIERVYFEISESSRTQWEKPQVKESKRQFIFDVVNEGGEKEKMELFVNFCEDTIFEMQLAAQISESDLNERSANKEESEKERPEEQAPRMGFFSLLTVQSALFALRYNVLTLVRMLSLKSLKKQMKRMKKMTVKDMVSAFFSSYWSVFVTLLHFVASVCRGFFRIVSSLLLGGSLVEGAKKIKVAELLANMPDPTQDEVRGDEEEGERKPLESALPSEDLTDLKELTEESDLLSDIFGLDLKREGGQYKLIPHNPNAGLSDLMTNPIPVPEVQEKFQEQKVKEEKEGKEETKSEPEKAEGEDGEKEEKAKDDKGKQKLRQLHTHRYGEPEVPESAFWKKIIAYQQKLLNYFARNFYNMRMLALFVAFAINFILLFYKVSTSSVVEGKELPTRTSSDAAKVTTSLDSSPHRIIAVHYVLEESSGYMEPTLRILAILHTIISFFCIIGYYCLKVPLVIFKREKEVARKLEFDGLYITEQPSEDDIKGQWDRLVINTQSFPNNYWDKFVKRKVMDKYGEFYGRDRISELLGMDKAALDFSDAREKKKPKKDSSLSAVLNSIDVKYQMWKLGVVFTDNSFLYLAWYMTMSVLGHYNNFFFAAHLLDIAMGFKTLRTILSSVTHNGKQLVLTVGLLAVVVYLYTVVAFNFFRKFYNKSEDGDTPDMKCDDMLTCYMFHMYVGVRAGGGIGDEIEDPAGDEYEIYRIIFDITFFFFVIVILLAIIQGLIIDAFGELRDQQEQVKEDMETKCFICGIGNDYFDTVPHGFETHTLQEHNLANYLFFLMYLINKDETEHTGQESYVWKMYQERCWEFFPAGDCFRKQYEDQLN
Target sequence in this assay (P68106 with tags, fused parts or gaps T15C/C23A/C77I partner): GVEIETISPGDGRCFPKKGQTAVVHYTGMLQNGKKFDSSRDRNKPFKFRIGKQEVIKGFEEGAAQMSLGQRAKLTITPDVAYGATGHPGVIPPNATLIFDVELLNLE

RyR2 [2] = target: T1, RyR2; test: Steady-state F-DPc10 binding at the Z-line of saponin-permeabilized myocytes (confocal); parameters: endogenous in cells; host or cells: saponin-permeabilized adult rat ventricular myocytes; settings: in-cell binding isotherm, [Ca2+]i 50 nmol/L
Protocol: Rat ventricular myocytes were isolated and permeabilized as previously described (Li et al., Circ Res, 2002; 90:309-316). All procedures were performed according to the Guiding Principles in the Care and Use of the Animals and were approved by the Council of American Physiological Society. DPc10, FKBP12.6, and CaM were labeled at specific sites with small fluorescence probes, similar to our previous studies (Guo et al., Circ Res, 2010; 106:1743-1752; Cornea et al., PNAS USA, 2009; 106:6128-6133; Guo et al., Biophys J, 2011; 101:2170-2177).
Confocal images was measured using a Biorad RADIANCE2100™ laser scanning confocal microscope equipped with an Argon ion laser, Green HeNe laser and with a Nikon Fluo x40 oil lens. FRET (fluorescence resonance energy transfer) experiments between CaM and DPc10, and FKBP12.6 and DPc10 were performed using an Olympus FV1000 confocal microscope. All experiments were done at room temperature.
Myocytes were exposed to […] F-DPc10, with intracellular [Ca^2+] ([Ca^2+]i) set at 50 nmol/L. F-DPc10 fluorescence is highest at the Z-lines, where RyR2 is concentrated, forming a typical cross-striated pattern. The difference between fluorescence intensity at the Z-line (Fz) and M-line (FM) is taken to represent [F-DPc10] specifically bound at the myocyte Z-line. We calibrated the bound [F-DPc10] in permeabilized myocytes using the linear relationship between F-DPc10 fluorescence and bath [F-DPc10] (FIG. 7B). […] To further test whether this Z-line-associated F-DPc10 represents RyR2-bound F-DPc10, we measured FRET between FKBP12.6 (known to specifically bind to RyR2 with subnanomolar affinity) (Guo et al., Circ Res, 2010; 106:1743-1752) and F-DPc10. […] Donor (AF568-FKBP12.6) fluorescence at the Z-line was quenched by HF647-DPc10, but the M-line signal was not (FIG. 9B). […]
Target sequence in this assay (B0LPN4 whole entry): as the sequence (B0LPN4 whole entry) above

RyR2 [3] = target: T1, RyR2; test: F-DPc10 wash-in and washout kinetics at the myocyte Z-line; type: binding; parameters: endogenous in cells; host or cells: saponin-permeabilized adult rat ventricular myocytes
Protocol: To characterize DPc10-binding kinetics at Z-lines, we performed F-DPc10 wash-in (500 nmol/L) and washout experiments in permeabilized myocytes (FIG. 10A). Association (τwash-in=79.0±3.2 minutes) and dissociation (τwashout=149.8±4.4 minutes) were very slow compared with similar FKBP12.6 measurements (Guo et al., Circ Res, 2010; 106:1743-1752). From the wash-in/washout measurements, we calculated the association and dissociation rates constants, kon and koff, respectively, according to the following equation: kwash-in=[F-DPc10]kon+koff where kwashout≈koff and k=1/τ (s^−1). Accordingly, kon=202±20 (L mol^−1 s^−1) and koff=0.11±0.01 (10^−3 s^−1). […] We repeated this kinetic analysis using FRET between FKBP12.6 and DPc10, thus assessing the RyR2-specific DPc10 binding (FIG. 11A AND 11B). […] Based on these kinetic and affinity analyses, we infer that most of the Z-line-specific DPc10 binding is to RyR2. This is also consistent with Bmax, which would imply ≈1 DPc10 per RyR2 monomer.
We were intrigued by the slow kwash-in and conducted measurements to further understand the basis of this slow association. We tested the hypothesis that at resting [Ca^2+]i, DPc10 access to its RyR2 binding site is sterically hindered. If the N-terminal and central domains are tightly zipped to each other, then this interaction may occlude the DPc10-binding site on the RyR2, thus limiting the kon for DPc10. Alternatively, a limiting factor may be the rate at which DPc10 adopts a conformation that can bind to RyR2. To discern between these mechanisms, we determined the effect of [F-DPc10] on τwash-in. If the small fraction of DPc10 in the right conformation limits binding rate, then τwash-in should be faster at higher [F-DPc10], according to Equation. […] Instead, a 10-fold increase in [F-DPc10] had no significant effect on the τwash-in, although it did increase Bmax (FIG. 10B). The same was seen when using FKBP12.6-DPc10 FRET to assess τwash-in with 0.5 vs 5 μmol/L HF647-DPc10 (FIG. 12A AND 12B).
In our working model, under resting conditions, the RyR2 closed state may be stabilized by the interaction between the N-terminal and central domain in the zipped state. We hypothesized that conditions that promote RyR2 opening might enhance the rate of unzipping and accelerate τwash-in for F-DPc10. To test this, we first monitored F-DPc10 wash-in at elevated Ca^2+ (500 nmol/L). However, the 13% faster mean τwash-in was not significant (FIG. 13A). […] Thus, we preincubated myocytes with ryanodine (100 μmol/L) plus caffeine ([…]), which are known to favor long RyR2 openings and were reported to cause RyR2 domain unzipping in HEK293 cells (Liu et al., J Cell Sci, 2010; 123: 1775-1784). Ryanodine+caffeine produced a 21% faster τwash-in (P=0.002; FIG. 13B). However, the most significant effect was seen after presaturating RyR2 with NF-DPc10 (and then NF-DPc10 washout with F-DPc10 present; FIG. 13A). […] Assuming that koff of NF-DPc10 is the same as for F-DPc10 and using Equation, the kon is increased by 3.2-fold by unzipping as a result of prebinding of NF-DPc10 to the RyR2. Our working hypothesis is that the RyR2 open state may increase the probability of an RyR2 shifting to the unzipped state and may allow faster F-DPc10 wash-in. It also seems that the RyR2 open state (favored by caffeine-ryanodine) differs from the unzipped state (bound with DPc10).
Both FKBP12.6 and CaM bind to the RyR2 and can reduce channel opening, which might alter DPc10 binding. […] Neither CaM nor FKBP12.6 pretreatment altered M-line F-DPc10 fluorescence (FIG. 15). […] We infer that CaM stabilizes the domain interaction between N-terminal and central domains in the zipped state and thereby may reduce DPc10 access to its binding site. To test for direct CaM-DPc10 interaction, we performed control FRET measurements between donor-labeled CaM and acceptor-labeled DPc10 in solution in the absence of RyR. The maximal FRET efficiency (<1%) ruled out direct CaM-DPc10 interaction. […]
Target sequence in this assay (B0LPN4 whole entry): as above

[4] = calculated from wash-in/washout

- effect on FRET, E(compound)/E(control); hit = outside the 3SD threshold (RyR): hits
Compound: O=C1N(c2ccccc2)c2ccccc2C1(Cc1ccncc1)Cc1ccncc1 [Linopirdine]

- effect on FRET, E(compound)/E(control); hit = outside the 3SD threshold (RyR): hits
Compound: NC(=O)c1cccnc1 [Nicotinamide]

- effect on FRET, E(compound)/E(control); hit = outside the 3SD threshold (RyR): among the hits
- effect on FRET, E(compound)/E(control); hit = outside the 3SD threshold (RyR; listed as FK506): reducing FRET
Compound: C=CC[C@@H]1/C=C(\C)C[C@H](C)C[C@H](OC)[C@H]2O[C@@](O)(C(=O)C(=O)N3CCCC[C@H]3C(=O)O[C@H](/C(C)=C/[C@@H]3CC[C@@H](O)[C@H](OC)C3)[C@H](C)[C@@H](O)CC1=O)[C@H](C)C[C@@H]2OC [Tacrolimus]

Further lines, the compound ahead of its results:

Compound: Nc1nc(Cl)nc2c1ncn2[C@H]1C[C@H](O)[C@@H](CO)O1 [Cladribine]
- effect on FRET, E(compound)/E(control); hit = outside the 3SD threshold (RyR): hits

Compound: CC[C@H](C)[C@H](NC(=O)CNC(=O)[C@H](Cc1ccc(O)cc1)NC(=O)[C@@H](NC(=O)[C@H](CCCNC(=N)N)NC(=O)[C@H](CC(=O)O)NC(=O)[C@H](CC(C)C)NC(=O)[C@H](Cc1ccccc1)NC(=O)[C@H](CC(C)C)NC(=O)[C@@H](NC(=O)[C@H](CCSC)NC(=O)[C@H](C)NC(=O)[C@H](C)NC(=O)[C@H](CCCCN)NC(=O)[C@H](Cc1c[nH]cn1)NC(=O)[C@H](CC(=O)O)NC(=O)[C@@H]1CCCN1C(=O)[C@H](CS)NC(=O)[C@H](Cc1ccccc1)NC(=O)CNC(=O)c1ccc2c(c1)C(=O)OC21c2ccc(O)cc2Oc2cc(O)ccc21)C(C)C)C(C)C)C(=O)N[C@@H](CCC(=O)O)C(=O)N[C@H](C(=O)N[C@@H](CCC(N)=O)C(=O)N[C@@H](CC(=O)O)C(=O)N[C@@H](Cc1ccccc1)C(=O)N[C@@H](CC(C)C)C(=O)N[C@@H](CC(C)C)C(=O)N[C@@H](Cc1c[nH]cn1)C(=O)N[C@@H](CC(C)C)C(=O)N[C@@H](CC(C)C)C(=O)N[C@@H](CCC(=O)O)C(=O)N[C@H](C(=O)NCC(=O)N[C@@H](Cc1ccccc1)C(=O)N[C@@H](CC(C)C)C(=O)N1CCC[C@H]1C(=O)O)C(C)C)C(C)C [F-DPc10] (5FAM-GFCPDHKAAMVLFLDRVYGIEVQDFLLHLLEVGFLP-OH)
- τwash-in in controls (RyR2 [1]): ~80 min
- maximal binding (Bmax), concentration of F-DPc10-binding sites (RyR2 [2]): 1.59±0.03 μmon
- association τwash-in (RyR2 [3]; F-DPc10 500 nmol/L): 79.0 ± 3.2 min
- dissociation τwashout (RyR2 [3]; F-DPc10 500 nmol/L): 149.8 ± 4.4 min
- koff (RyR2 [3]; [4]): 0.00011 ± 1e-05 s⁻¹
- kon (RyR2 [3]; [4]): 202 ± 20 M⁻¹ s⁻¹
- kon slower than that measured for FKBP12.6 (RyR2 [3]; similar conditions): ≈ 1800 fold

— patent US10281476B2, “Methods to identify modulators of RyR calcium channels” (REGENTS OF THE UNIVERSITY OF MINNESOTA, priority 2013, dated 2019)
